Where a SMILES comes first, the peptide text is derived from it. Bridges are numbered along the chain shown (N, C = ends).
Molecular target: T1, β3 (109-133) peptide (Homo sapiens, UniProt P05106)
T1 construct: made in house; host or cells: chemical synthesis
T1 sequence (P05106 135-159 limits assumed): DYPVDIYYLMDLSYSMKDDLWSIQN
Test: RGD-phage binding to peptides from the β3 integrin subunit
Settings: titration experiments (not shown); read-out: concentration giving 50% inhibition of RGD-binding to β3 (109-133)

CC(C)C[C@@H]1NC(=O)[C@H](Cc2c[nH]c3ccccc23)NC(=O)CNC(=O)[C@H](CC(=O)O)NC(=O)[C@H](CC(=O)O)NC(=O)[C@H](Cc2c[nH]c3ccccc23)NC(=O)[C@@H](N)CSSC[C@@H](C(=O)O)NC1=O (H-CWDDGWLC-OH; disulfide 1-8)
IC50: ~1000 nM
